In PubChem BioAssay AID296 (DTP/NCI, 2004):
Where “and” joins values, the source holds several entries; their conditions need not be identical. Equal entries are not always repeated. Results filed as inconclusive are left out.

Test system: MX-1 breast xenograft, nude mice, tumor weight T/C
Test: NCI In Vivo Anticancer Drug Screen. Data for tumor model Human Mammary Carcinoma MX-1 Xenograft (intrarenal inoculation) in NU/NU Swiss (nude) mice
Settings: endpoint: mean tumor weight change, higher = larger tumour
How it was run: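 Tumor-bearing mice were treated with test compound alongside a vehicle-treated control group. Survival or tumor size was measured, and activity is expressed as the treated-group value divided by the control-group value.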

[1] = dose: 37.5 mg/kg/injection, schedule: Q04DX003 (sc), vehicle: Klucel (hydroxypropylcellulose) (HPC)
[2] = dose: 150.0 mg/kg/injection, schedule: Q04DX003 (sc), vehicle: Klucel (hydroxypropylcellulose) (HPC)
[3] = dose: 300.0 mg/kg/injection, schedule: Q04DX003 (sc), vehicle: Klucel (hydroxypropylcellulose) (HPC)
[4] = dose: 600.0 mg/kg/injection, schedule: Q04DX003 (sc), vehicle: Klucel (hydroxypropylcellulose) (HPC)
[5] = dose: 1200.0 mg/kg/injection, schedule: Q04DX003 (sc), vehicle: Klucel (hydroxypropylcellulose) (HPC)
[6] = dose: 300.0 mg/kg/injection, schedule: Q04DX003 (sc), vehicle: saline with Tween-80
[7] = dose: 100.0 mg/kg/injection, schedule: Q04DX003 (sc), vehicle: saline
[8] = dose: 200.0 mg/kg/injection, schedule: Q04DX003 (sc), vehicle: saline
[9] = dose: 100.0 mg/kg/injection, schedule: Q04DX003 (sc), vehicle: saline with Tween-80
[10] = dose: 200.0 mg/kg/injection, schedule: Q04DX003 (sc), vehicle: saline with Tween-80
[11] = dose: 200.0 mg/kg/injection, schedule: Q04DX003 (sc), vehicle: Klucel (hydroxypropylcellulose) (HPC)
[12] = dose: 400.0 mg/kg/injection, schedule: Q04DX003 (sc), vehicle: Klucel (hydroxypropylcellulose) (HPC)
[13] = dose: 800.0 mg/kg/injection, schedule: Q04DX003 (sc), vehicle: Klucel (hydroxypropylcellulose) (HPC)
[14] = dose: 150.0 mg/kg/injection, schedule: Q04DX003 (sc), vehicle: saline
[15] = dose: 50.0 mg/kg/injection, schedule: Q04DX003 (sc), vehicle: saline with Tween-80

Structure (SMILES): O=C(CCBr)N1CCN(C(=O)CCBr)CC1
- T/C (dose: 4.5 mg/kg/injection, schedule: Q01DX010 (sc), vehicle: Klucel (hydroxypropylcellulose) (HPC)): 111 % of control
- T/C (dose: 12.5 mg/kg/injection, schedule: Q01DX010 (sc), vehicle: Klucel (hydroxypropylcellulose) (HPC)): 52 % of control
- T/C (dose: 18.0 mg/kg/injection, schedule: Q01DX010 (sc), vehicle: Klucel (hydroxypropylcellulose) (HPC)): 33 % of control and 48 % of control
- T/C (dose: 25.0 mg/kg/injection, schedule: Q01DX010 (sc), vehicle: Klucel (hydroxypropylcellulose) (HPC)): 19 % of control
- T/C (dose: 36.0 mg/kg/injection, schedule: Q01DX010 (sc), vehicle: Klucel (hydroxypropylcellulose) (HPC)): 1 % of control and 9 % of control

Structure (SMILES): CCC[CH2][Hg][Cl]
- T/C (dose: 9.38 mg/kg/injection, schedule: Q04DX003 (sc), vehicle: Klucel (hydroxypropylcellulose) (HPC)): 74 % of control
- T/C (dose: 18.75 mg/kg/injection, schedule: Q04DX003 (sc), vehicle: Klucel (hydroxypropylcellulose) (HPC)): 61 % of control
- T/C [1]: 46 % of control

Structure (SMILES): COc1cccc2c1C(=O)c1c(O)c3c(c(O)c1C2=O)C[C@@](O)(C(C)=O)C[C@@H]3OC1CC(N)C(O)C(C)O1 (stereo partly specified)
- T/C (dose: 0.5 mg/kg/injection, schedule: Q01DX010 (sc), vehicle: saline): 161 % of control
- T/C (dose: 4.0 mg/kg/injection, schedule: Q01DX010 (sc), vehicle: saline): 78 % of control and 89 % of control

Structure (SMILES): COc1cc(C[C@H]2c3cc(OC)c(OC)cc3CCN2C)c(Oc2cc3c(cc2OC)-c2c(OC)c(OC)cc4c2[C@H](C3)N(C)CC4)cc1OC
- T/C (dose: 100.0 mg/kg/injection, schedule: Q01DX010 (sc), vehicle: saline with Tween-80): 95 % of control
- T/C (dose: 200.0 mg/kg/injection, schedule: Q01DX010 (sc), vehicle: saline with Tween-80): 67 % of control
- T/C (dose: 400.0 mg/kg/injection, schedule: Q01DX010 (sc), vehicle: saline with Tween-80): 75 % of control
- T/C (dose: 800.0 mg/kg/injection, schedule: Q01DX010 (sc), vehicle: saline with Tween-80): 71 % of control

Structure (SMILES): C#C[C@]1(O)CC[C@H]2[C@@H]3CCc4cc(O)ccc4[C@H]3CC[C@@]21C
- T/C [2]: 150 % of control
- T/C [3]: 94 % of control
- T/C [4]: 80 % of control
- T/C [5]: 122 % of control

Structure (SMILES): O=Cc1ccc(O)c(O)c1
- T/C [6]: 181 % of control

Structure (SMILES): CN(C)[C@@H]1C(=O)C(C(=O)NCN2CCN(C(=N)N=C(N)N)CC2)=C(O)[C@@]2(O)C(=O)C3=C(O)c4c(O)cccc4[C@@](C)(O)[C@H]3C[C@@H]12
- T/C (dose: 2.5 mg/kg/injection, schedule: Q04DX003 (ip), vehicle: suspension in saline): 100 % of control
- T/C (dose: 5.0 mg/kg/injection, schedule: Q04DX003 (ip), vehicle: suspension in saline): 28 % of control

Structure (SMILES): COc1nc(C(Cl)(Cl)Cl)c(Cl)c(OC)c1Cl
- T/C (dose: 75.0 mg/kg/injection, schedule: Q04DX003 (ip), vehicle: Klucel (hydroxypropylcellulose) (HPC)): 33 % of control
- T/C (dose: 150.0 mg/kg/injection, schedule: Q04DX003 (ip), vehicle: Klucel (hydroxypropylcellulose) (HPC)): -28 % of control
- T/C (dose: 150.0 mg/kg/injection, schedule: Q04DX003 (oral), vehicle: Klucel (hydroxypropylcellulose) (HPC)): -33 % of control
- T/C (dose: 300.0 mg/kg/injection, schedule: Q04DX003 (ip), vehicle: Klucel (hydroxypropylcellulose) (HPC)): 10 % of control
- T/C (dose: 300.0 mg/kg/injection, schedule: Q04DX003 (oral), vehicle: Klucel (hydroxypropylcellulose) (HPC)): -15 % of control

Structure (SMILES): COC1CC(C)C(OC)C2=CC(=O)C=C(NC(=O)/C(C)=C/C=C\C(C)C(OC(N)=O)/C(C)=C\C(C)C1OC)C2=O (stereo unspecified)
- T/C (dose: 12.5 mg/kg/injection, schedule: Q04DX003 (sc), vehicle: saline + alcohol): 81 % of control
- T/C (dose: 25.0 mg/kg/injection, schedule: Q04DX003 (sc), vehicle: saline + alcohol): 97 % of control

Structure (SMILES): CC(=O)OC1OC(=O)C(C)(C(C)=O)C1C (stereo unspecified)
- T/C (dose: 5.0 mg/kg/injection, schedule: Q04DX003 (ip), vehicle: distilled water + alcohol): 85 % of control
- T/C (dose: 10.0 mg/kg/injection, schedule: Q04DX003 (ip), vehicle: distilled water + alcohol): 109 % of control
- T/C (dose: 20.0 mg/kg/injection, schedule: Q04DX003 (ip), vehicle: distilled water + alcohol): 35 % of control

Structure (SMILES): O=C(/C=C(\Cl)C(=O)NO)NO
- T/C (dose: 50.0 mg/kg/injection, schedule: Q04DX003 (sc), vehicle: saline): 93 % of control
- T/C [7]: 80 % of control
- T/C [8]: 77 % of control

Structure (SMILES): N=C(N)CCCCCCCCC(=N)N
- T/C (dose: 18.75 mg/kg/injection, schedule: Q04DX003 (sc), vehicle: saline): 124 % of control

Structure (SMILES): CN1CCc2c(c3ccccc3c3ccccc23)C1
- T/C [2]: 30 % of control
- T/C [3]: 45 % of control

Structure (SMILES): O=C[C@@H](CO)O[C@H](C=O)n1cnc2c(=O)[nH]cnc21
- T/C [9]: 41 % of control
- T/C [10]: 39 % of control and 63 % of control
- T/C [6]: 47 % of control

Structure (SMILES): O=[N+]([O-])c1ccc(-n2[nH]nnc2=S)cc1
- T/C [11]: 158 % of control
- T/C [12]: 151 % of control
- T/C [13]: 169 % of control

Structure (SMILES): O=C(O)C1CC(O)CN1 (stereo unspecified)
- T/C [14]: 67 % of control
- T/C (dose: 300.0 mg/kg/injection, schedule: Q04DX003 (sc), vehicle: saline): 120 % of control
- T/C (dose: 600.0 mg/kg/injection, schedule: Q04DX003 (sc), vehicle: saline): 91 % of control
- T/C (dose: 1200.0 mg/kg/injection, schedule: Q04DX003 (sc), vehicle: saline): 106 % of control

Structure (SMILES): [Cl][Mn][Cl]
- T/C (dose: 37.5 mg/kg/injection, schedule: Q04DX003 (sc), vehicle: saline): 115 % of control
- T/C (dose: 75.0 mg/kg/injection, schedule: Q04DX003 (sc), vehicle: saline): 109 % of control
- T/C [14]: 104 % of control

Structure (SMILES): C=C(c1ccc(OC)c(OC)c1)c1nccc2cc(OC)c(OC)cc12
- T/C [2]: 91 % of control
- T/C [3]: 71 % of control
- T/C [4]: 89 % of control
- T/C [5]: 54 % of control

Structure (SMILES): Cc1ccc(NCC2(/N=C/c3ccccc3)OC(CO)C(O)C2O)cc1 (stereo unspecified)
- T/C [11]: 109 % of control
- T/C [12]: 124 % of control
- T/C [13]: 94 % of control
- T/C (dose: 1600.0 mg/kg/injection, schedule: Q04DX003 (sc), vehicle: Klucel (hydroxypropylcellulose) (HPC)): 101 % of control

Structure (SMILES): C/C=C/c1cc2c(c(=O)o1)C(=O)[C@@H](O)[C@H](C)O2
- T/C [15]: 114 % of control
- T/C [9]: 93 % of control
- T/C [10]: 101 % of control

Structure (SMILES): CC1(C)COCN1COC1CCCCC1
- T/C [7]: 24 % of control
- T/C [8]: 32 % of control
- T/C (dose: 400.0 mg/kg/injection, schedule: Q04DX003 (sc), vehicle: saline): 78 % of control
- T/C (dose: 800.0 mg/kg/injection, schedule: Q04DX003 (sc), vehicle: saline): 56 % of control

Structure (SMILES): O=C(C/C(=N\C(=S)Nc1cc(C(F)(F)F)ccc1Cl)NO)N1CCCC1
- T/C (dose: 150.0 mg/kg/injection, schedule: Q04DX003 (sc), vehicle: saline with Tween-80): 88 % of control
- T/C [6]: 94 % of control
- T/C (dose: 600.0 mg/kg/injection, schedule: Q04DX003 (sc), vehicle: saline with Tween-80): 82 % of control
- T/C (dose: 1200.0 mg/kg/injection, schedule: Q04DX003 (sc), vehicle: saline with Tween-80): 98 % of control

Structure (SMILES): O=[N+]([O-])c1c(O)c(CNCCCO)cc(CNCCCO)c1O
- T/C (dose: 37.5 mg/kg/injection, schedule: Q04DX003 (ip), vehicle: suspension in saline): 50 % of control
- T/C (dose: 75.0 mg/kg/injection, schedule: Q04DX003 (ip), vehicle: suspension in saline): 55 % of control

Structure (SMILES): COc1cc2cc(c1Cl)N(C)C(=O)C[C@H](OC(=O)[C@H](C)N(C)C(C)=O)[C@]1(C)O[C@H]1[C@H](C)[C@@H]1C[C@@](O)(NC(=O)O1)[C@H](OC)C=C/C=C(\C)C2
- T/C (dose: 50.0 micrograms/kg/injection, schedule: Q01DX010 (sc), vehicle: Klucel (hydroxypropylcellulose) (HPC)): 99 % of control
- T/C (dose: 100.0 micrograms/kg/injection, schedule: Q01DX010 (sc), vehicle: Klucel (hydroxypropylcellulose) (HPC)): 67 % of control
- T/C (dose: 200.0 micrograms/kg/injection, schedule: Q01DX010 (sc), vehicle: Klucel (hydroxypropylcellulose) (HPC)): -74 % of control

Structure (SMILES): Nc1cc2c3c(cccc3c1)C(=O)N(CCN1CCCC1)C2=O
- T/C (dose: 25.0 mg/kg/injection, schedule: Q04DX003 (sc), vehicle: saline with Tween-80): 60 % of control
- T/C [15]: 60 % of control
- T/C [9]: 120 % of control
- T/C [10]: 119 % of control

Structure (SMILES): O=C1C=CC(=O)N1c1ccc(Cl)cc1
- T/C [1]: 79 % of control
- T/C (dose: 75.0 mg/kg/injection, schedule: Q04DX003 (sc), vehicle: Klucel (hydroxypropylcellulose) (HPC)): 91 % of control
- T/C [2]: 85 % of control
